From patent publication US20260048022A1, “ENDOTHELIAL DAMAGE AND NANOPARTICLE TARGETING: COMPOSITIONS, PROCESSES, USES” (Nanoprobes, Inc., priority 2022, published 2026)
Read-outs that look alike come from different tables or passages of the source.

Assays:
DNA = test: Nanoparticle targeting of DNA; format: binding; conditions: DNA binder incorporated into nanoparticles
Protocol: (§1) 0.2 mg of acridine yellow G or 0.2 mg of propidium iodide were dissolved in DMSO by heating twice at 80° C. for 2 min. 15 mg albumin was dissolved in 0.4 mL of PBS. While sonicating the albumin solution in an ice bath, the acridine or propidium solutions were slowly over about 10-20 sec injected at the sonicator tip. Sonication was continued for another minute. Clear colored solutions were obtained. Both were filtered through a 0.45 μm filter, all passing through. However, if albumin was not used, the solution containing acridine all was retained by the filter, whereas the propidium solution passed through. Both were purified with 50 kD Amicon centrifugal filters with PBS washing.
(§2) 20 mg of albumin was dissolved in 0.4 mL water and mixed with 0.5 mg of Dox making a clear colored solution. Under sonication and in an ice-water bath, 80 ul of 0.1 M NaOH was slowly injected near the sonicator tip. Next, 10 ul of 8% glutaraldehyde (in water) was added with an additional 5 minutes of sonication producing a clear solution. After 30 min, 30 ul of a 3 M solution of ethanolamine hydrochloride was added. After 30 min, the construct was purified on a 50 kDa centrifugal filter. […] After resuspension of the retentate in PBS the size of the nanoparticles was measured to be 117 nm by dynamic light scattering.

[1] = Payload retention / incorporation in protein nanoparticles; format: physicochemical; conditions: PBS washing
Protocol: as §1
as §2, with “scattering. […]” for “scattering.”

tumors [2] = test: Tumor treatment, variation of fibrinogen, drug and VDA amounts; format: in vivo
Protocol: One of the components, fibrinogen, was varied from 10 to 150 mg/kg.
In a preferred embodiment, 60 mg PTX/kg and 350 mg fibrinogen/kg are formed into nanoparticles 110-180 nm or 110 to 350 nm in size. Another discovery process requiring extensive experimentation was to find the type of fibrinogen that worked well. […] Various forms and fractions were tested to find a preferable one for tumor targeting.

tumors [3] = conditions: Pedley et al, 1996; cited from earlier work
[4] = Phase III trials; cited from earlier work
[5] = test system: advanced non-squamous non-small-cell lung cancer; conditions: Phase II, with carboplatin, paclitaxel, and bevacizumab; cited from earlier work
[6] = free drug, literature, cited from earlier work

For `CC[N+](C)(CC)CCC[n+]1c(-c2ccccc2)c2cc(N)ccc2c2ccc(N)cc21` [propidium, propidium iodide], the “targeting of necroses / free DNA when included in a nanoparticle” value (DNA) was “failed” and the “retention with albumin on 50 kD Amicon centrifugal filters (stable complex)” value [1] was “came through in the filtrate”.

For `Cc1ccc2c(=O)c3cccc(CC(=O)O)c3oc2c1C` [DMXAA], the “dose close to optimal” value (tumors [2]; DMXAA as vascular disrupting agent with nanoparticles) is listed as ~18 mg/kg, the “dose leading to excessive toxicity” value (mouse, in vivo) is listed as > 20 mg/kg and the “ineffective dose (current teaching)” value (tumors [3]) is listed as “less than 20 mg/kg”. The “useful dose (current teaching)” value (tumors [3]) was 27.5 mg/kg and the patient survival [4] was “lack of patient gain in survival”.

In the case of `COc1ccc(/C=C\c2cc(OC)c(OC)c(OC)c2)cc1OP(=O)(O)O.NC(CO)(CO)CO` [CA4P, fosbretabulin tromethamine], the patient benefit [5] is listed as “little patient benefit”.

For `CC(=O)O[C@H]1C(=O)[C@@]2(C)[C@H]([C@H](OC(=O)c3ccccc3)[C@]3(O)C[C@H](OC(=O)[C@H](O)[C@@H](NC(=O)c4ccccc4)c4ccccc4)C(C)=C1C3(C)C)[C@]1(OC(C)=O)CO[C@@H]1C[C@@H]2O` [paclitaxel], the treatment result (tumors [2]; 60-90 mg PTX/kg in the nanoparticle) was “excellent results”, the tolerability (mouse, in vivo, 90 mg/kg) was “well-tolerated” and the “multiple of the maximum tolerated dose that can be safely administered” value (using the disclosed method) was ~4 times. The “maximum tolerated dose (reported / published)” value [6] was 10 mg/kg and the “maximum tolerated dose (reported / published)” value ([6]; listed as PTX) was 25 mg/kg.

With `Cc1cc2cc3cc(C)c(N)cc3nc2cc1N` [acridine yellow G] the “targeting of necroses / free DNA when included in a nanoparticle” value (DNA) was “found to target the nanoparticles to free DNA” and the “retention with albumin on 50 kD Amicon centrifugal filters (stable complex)” value [1] was “remained in the retentate”.
